These results are taken from patent publication US20110117020A1, “IMAGING DENDRIMER NANOPROBES AND USES THEREOF” (THE TRUSTEES OF THE UNIVERSITY OF PENNSYLVANIA, priority 2008, published 2011).

Series [1] is described as follows: Optical absorption spectra (UV-Vis spectrophotometer). The format is physicochemical. Conditions: for Absorption log e / Absorption λmax: Table I; for Absorption Q band / Absorption Q band Ig ε / Absorption Soret band / Absorption Soret band Ig ε: Table II. As to the method:
(§1) Quartz fluorometric cells (Starna, Inc, 1 cm optical path length) were used in optical experiments. Optical spectra were recorded on a Perkin-Elmer Lambda 35 UV-Vis spectrophotometer. Steady state fluorescence and phosphorescence measurements were performed on a SPEX Fluorolog-2 spectrofluorometer (Jobin-Yvon Horiba), equipped with an infra-red enhanced R2658P PMT (Hamamatsu). Emission spectra were obtained using solutions with absorption at the excitation maxima of approximately 0.05 OD. Quantum yields of emission of all the synthesized compounds were measured relative to the fluorescence of tetraphenylporphyrin (φfl=0:11 in deox. C6H6).

The nature of series [2]: Steady state phosphorescence: emission maxima, quantum yields, lifetimes. The following applies: for Phosphorescence φ: PhCN, deoxygenated, relative to fluorescence of H2TPP in deoxygenated benzene. Format: physicochemical. As for the experimental part: as §1
Setting [3] is: solution in PhCN, deoxygenated by Ar-bubbling.
Where [4] appears, read: solution in PhCN, deoxygenated by Ar-bubbling, above 900 nm large experimental errors.

The structures appear in SMILES notation. Marks after values point to notes of the source that are not given here.

With `O=C(O)c1cc(C(=O)O)cc(C2=C3N=C(C(c4cc(C(=O)O)cc(C(=O)O)c4)=c4c5ccccc5c5[n]4[Pd][n]4c2c2ccccc2c4C(c2cc(C(=O)O)cc(C(=O)O)c2)=C2N=C(C=5c4cc(C(=O)O)cc(C(=O)O)c4)c4ccccc42)c2ccccc23)c1`, in series [1] (first band), the Absorption log e is reported as 5.46 and the “Absorption λmax” value is on record as 446 nm. Moreover, in series [1] (second band), the Absorption log e came out at 5.00 and the “Absorption λmax” value is on record as 635 nm. Further, in series [2] (Table I), the “Phosphorescence λmax” value worked out at 816 nm, the τ0 came to 210 μs and the φp is on record as 0.09.
For `O=C(O)c1cc(C(=O)O)cc(C2=C3N=C(C(c4cc(C(=O)O)cc(C(=O)O)c4)=c4c5ccccc5c5[n]4[Pt][n]4c2c2ccccc2c4C(c2cc(C(=O)O)cc(C(=O)O)c2)=C2N=C(C=5c4cc(C(=O)O)cc(C(=O)O)c4)c4ccccc42)c2ccccc23)c1`, in series [1] (first band), the Absorption log e is reported as 5.23 and the “Absorption λmax” value came to 433 nm. In series [1] (second band), the Absorption log e was determined as 5.00 and the “Absorption λmax” value was determined as 622 nm. For the same molecule, in series [2] (Table I), the “Phosphorescence λmax” value turned out to be 791 nm, the τ0 was determined as 41 μs and the φp was determined as 0.30.
For the molecule `CCCCOC(=O)c1cc(C(=O)OCCCC)cc(C2=C3N=C(C(c4cc(C(=O)OCCCC)cc(C(=O)OCCCC)c4)=c4c5cc6ccccc6cc5c5[n]4[Pd][n]4c2c2cc6ccccc6cc2c4C(c2cc(C(=O)OCCCC)cc(C(=O)OCCCC)c2)=C2N=C(C=5c4cc(C(=O)OCCCC)cc(C(=O)OCCCC)c4)c4cc5ccccc5cc42)c2cc4ccccc4cc23)c1` [Pd-3-OBu], in series [1], the “Absorption Q band” value is recorded as 716 nm, the “Absorption Q band Ig ε” value is 5.29, the “Absorption Soret band” value is on record as 458 nm and the “Absorption Soret band Ig ε” value was 5.29. In addition, in series [2], the “Phosphorescence φ” value is 0.02. For the same molecule, the “Phosphorescence τ0” value in series [2] (setting [3]) came to 52 μs. For the same molecule, in series [2] (setting [4]), the “Phosphorescence λmax” value is 961 [c] nm.
Turning to `O=C(O)c1cc(C(=O)O)cc(C2=C3N=C(C(c4cc(C(=O)O)cc(C(=O)O)c4)=c4c5cc6ccccc6cc5c5[n]4[Pt][n]4c2c2cc6ccccc6cc2c4C(c2cc(C(=O)O)cc(C(=O)O)c2)=C2N=C(C=5c4cc(C(=O)O)cc(C(=O)O)c4)c4cc5ccccc5cc42)c2cc4ccccc4cc23)c1` [Octacarboxytetra naphthoporphyrin Pt, Octacarboxytetra naphthoporphyrin], in series [1] (first band), the Absorption log e was determined as 5.14 and the “Absorption λmax” value was found to be 441 nm. Further, in series [1] (second band), the Absorption log e is 5.28 and the “Absorption λmax” value stood at 700 nm. Besides, in series [2] (Table I), the “Phosphorescence λmax” value was 923 nm, the τ0 was found to be 12 μs and the φp turned out to be 0.06.
As for `O=C(O)c1cc(C(=O)O)cc(C2=C3C=CC(=N3)C(c3cc(C(=O)O)cc(C(=O)O)c3)=c3ccc4[n]3[Pt][n]3c2ccc3C(c2cc(C(=O)O)cc(C(=O)O)c2)=C2C=CC(=N2)C=4c2cc(C(=O)O)cc(C(=O)O)c2)c1` [Octacarboxyporphyrin Pt, Octacarboxyporphyrin], in series [1] (first band), the Absorption log e was 5.54 and the “Absorption λmax” value is reported as 406 nm. For the same molecule, in series [1] (second band), the Absorption log e is listed as 4.50 and the “Absorption λmax” value was determined as 512 nm. In series [2] (Table I), this molecule came in with a τ0 of 53 μs and a φp of 0.24.
With `CCCCOC(=O)c1cc(C(=O)OCCCC)cc(C2=C3C=CC(=N3)C(c3cc(C(=O)OCCCC)cc(C(=O)OCCCC)c3)=c3ccc4[n]3[Pd][n]3c2ccc3C(c2cc(C(=O)OCCCC)cc(C(=O)OCCCC)c2)=C2C=CC(=N2)C=4c2cc(C(=O)OCCCC)cc(C(=O)OCCCC)c2)c1` [Pd-1-OBu], in series [1], the “Absorption Q band” value worked out at 526 nm, the “Absorption Q band Ig ε” value is on record as 4.57, the “Absorption Soret band” value worked out at 422 nm and the “Absorption Soret band Ig ε” value was found to be 5.61. Also, in series [2], the “Phosphorescence φ” value is reported as 0.08. Moreover, in series [2] (setting [3]), the “Phosphorescence τ0” value stood at 504 μs. For the same molecule, in series [2] (setting [4]), the “Phosphorescence λmax” value was found to be 696 nm.
